Source: patent US20070160725A1, “Use of extracts and compounds of allium-genus plants as preservatives in the food and agri-food industries” (MOUSALA, S., L., priority 2004, published 2007)
Values joined by “and” are separate entries in the source; they are usually repeats but may differ in a detail not shown here. Equal values may be shown once.

Columns and labels:
[1] = test system: Geotrichum candidum CECT 1902; assay: agar diffusion, inhibition halo; type: cell-based; details: in polyvinyl acetate emulsion, 2000 ppm
Description: (§1) In order to evaluate the antimicrobial activity the agar diffusion technique with cellulose discs of 6 mm in diameter impregnated with the different active ingredient testing doses was used.
(§2) Antifungal capacity was assessed against suspensions of […], harvested from pure cultures of the selected molds and against suspensions of 10^7 cells/ml for the case of yeasts. The culture medium used was the 2% Sabouraud-glucose medium (Merck).
(§3) After incubating the culture dishes inoculated with the different organisms at the corresponding temperatures, the microbial inhibition halos that appeared were measured, and said measurement includes the 6 mm diameter of the cellulose discs.

[2] = test system: Aspergillus terreus, isolated from the environment of the cheese maturation chamber; assay: agar diffusion, inhibition halo; type: cell-based
Description: as §1, §2, §3

[3] = test system: Aspergillus niger, CECT 2700; assay: agar diffusion, inhibition halo; type: cell-based
Description: as §1, §2, §3

[4] = test system: Mucor plumbeus, isolated from cheese; assay: agar diffusion, inhibition halo; type: cell-based; details: in polyvinyl acetate emulsion, 2000 ppm
Description: as §1, §2, §3

[5] = test system: Pullularia pullulans, CECT 2657; assay: agar diffusion, inhibition halo; type: cell-based
Description: as §1, §2, §3

[6] = test system: Candida albicans, ATCC 10231; assay: agar diffusion, inhibition halo; type: cell-based
Description: as §1, §2, §3

[7] = test system: Trichoderma viride, CECT 2460; assay: agar diffusion, inhibition halo; type: cell-based
Description: as §1, §2, §3

[8] = test system: Penicillium funiculosum, CECT 2702; assay: agar diffusion, inhibition halo; type: cell-based
Description: as §1, §2, §3

[9] = test system: Penicillium sp, isolated from cheese; assay: agar diffusion, inhibition halo; type: cell-based
Description: as §1, §2, §3

[10] = test system: Saccharomyces cerevisiae, CECT 1324; assay: agar diffusion, inhibition halo; type: cell-based
Description: as §1, §2, §3

mold = assay: preserving activity on the surface of sausages (large intestine chorizo and spiced sausage); details: intestines submerged in a pimaricin solution at 500 ppm for 3 hours before stuffing
Description: (§4) These tests were carried out according to the instructions for applying said commercial preparations on foods by immersion, such as spiced sausage, chorizo, cheese, etc. (see application examples), with different antimicrobial product doses.
Preparing sample 1: First a series of pig large intestines are submerged in a dispersion of pimaricin in water, 500 ppm, for three hours. Then two pieces are stuffed with 600 g each.
Then 4 other pieces are stuffed with 600 g each and are treated as follows: • Control sample: two pieces are left untreated. • Sample 2: Two pieces are submerged for 2 minutes in a dispersion of sucrose esters in water (10-40 g/kg of water), with a concentration of 3000 ppm of PTS.
All the pieces are subjected to drying between 24 and 26° C. and 90% relative humidity for 72 hours. Then they are hung and left to cure. The external appearance is monitored and the following results are obtained: […]

[11] = test system: Micrococcus luteus, isolated from a spiced sausage; assay: agar diffusion, inhibition halo; type: cell-based
Description: as §1
(§5) Antibacterial capacity was assessed against suspensions of 10^6 cells/ml, prepared from pure young cultures of each one of the strains to be tested. The culture medium used was Müller-Hinton medium (Merck).
as §3

[12] = test system: Staphylococcus aureus, isolated from hamburgers; assay: agar diffusion, inhibition halo; type: cell-based
Description: as §1, §5, §3

[13] = test system: Salmonella typhimurium, ATCC 13311; assay: agar diffusion, inhibition halo; type: cell-based
Description: as §1, §5, §3

[14] = test system: Pseudomonas aeruginosa, ATCC 13925; assay: agar diffusion, inhibition halo; type: cell-based
Description: as §1, §5, §3

[15] = test system: Proteus vulgaris, ATCC 13315; assay: agar diffusion, inhibition halo; type: cell-based
Description: as §1, §5, §3

[16] = test system: Bacillus cereus, CECT 1178; assay: agar diffusion, inhibition halo; type: cell-based
Description: as §1, §5, §3

[17] = test system: Escherichia coli, CECT 515; assay: agar diffusion, inhibition halo; type: cell-based
Description: as §1, §5, §3

[18] = test system: Streptococcus faecalis, isolated from a spiced sausage; assay: agar diffusion, inhibition halo; type: cell-based
Description: as §1, §5, §3

[19] = test system: Bacillus megaterium, ATCC 33085; assay: agar diffusion, inhibition halo; type: cell-based
Description: as §1, §5, §3

[20] = test system: mold on the surface of the cheese; assay: preservative activity on surface of cheese (PVA emulsion coating); details: fresh cheese, PVA emulsion with 2000 ppm pimaricin with 12000 ppm of potassium sorbate, diluted 1:1 with water, room temperature
Description: as §4
The amounts of PTS and pimaricin with potassium sorbate (12000 ppm) as shown in the corresponding table are added to emulsions of 1 kg of PVA. Said preparations are diluted 1:1 with water and pieces of fresh cheese without surface treatment are submerged therein. Once the pieces are dry, each one is introduced into a sealed recipient and is left at room temperature. They are monitored, and the occurrence of mold on their surface is observed on the days herein set forth:
Amounts of complex in α-cyclodextrin (sample 2) and β-cyclodextrin (sample 3) are added to emulsions of 1 kg of PVA such that the amount of active ingredient, PTS, is 5000 ppm. On the other hand a sample (no. 1) is prepared with pimaricin (2000 ppm) and potassium sorbate (12000 ppm). The same process is followed as in the previous case upon applying the products and the samples are monitored, the occurrence of mold on the surface of the cheese being observed according to the following table: […]

[21] = 250 ppm (second column headed 250)
[22] = in polyvinyl acetate emulsion, 2000 ppm

C[C@@H]1C/C=C/C=C/C=C/C=C/[C@H](O[C@@H]2O[C@H](C)[C@@H](O)[C@H](N)[C@@H]2O)C[C@@H]2O[C@](O)(C[C@@H](O)C[C@H]3O[C@@H]3/C=C/C(=O)O1)C[C@H](O)[C@H]2C(=O)O [Pimaricin, pimaricin]
inhibition halo diameter [1]: 15 mm
inhibition halo diameter ([2]; 100 ppm): 14 mm
inhibition halo diameter ([2]; 1000 ppm): 15 mm
inhibition halo diameter ([3]; 62.5 ppm): 19 mm
inhibition halo diameter ([3]; 250 ppm): 19 mm
inhibition halo diameter [3, 21]: 19 mm
inhibition halo diameter ([3]; 500 ppm): 20 mm
inhibition halo diameter ([3]; 1000 ppm): 20 mm
inhibition halo diameter [3, 22]: 20 mm
inhibition halo diameter [4]: 13 mm
inhibition halo diameter ([5]; 62.5 ppm): 24 mm
inhibition halo diameter ([5]; 250 ppm): 28 mm
inhibition halo diameter [5, 21]: 28 mm
inhibition halo diameter ([5]; 500 ppm): 30 mm
inhibition halo diameter ([5]; 1000 ppm): 23 mm
inhibition halo diameter ([6]; 62.5 ppm): 10 mm
inhibition halo diameter ([6]; 250 ppm): 12 mm
inhibition halo diameter [6, 21]: 12 mm
inhibition halo diameter ([6]; 500 ppm): 14 mm
inhibition halo diameter ([6]; 1000 ppm): 16 mm
inhibition halo diameter ([7]; 62.5 ppm): 13 mm
inhibition halo diameter ([7]; 250 ppm): 15 mm
inhibition halo diameter [7, 21]: 14 mm
inhibition halo diameter ([7]; 500 ppm): 16 mm
inhibition halo diameter ([7]; 1000 ppm): 18 mm
inhibition halo diameter ([8]; 62.5 ppm): 10 mm
inhibition halo diameter ([8]; 250 ppm): 11 mm
inhibition halo diameter [8, 21]: 10 mm
inhibition halo diameter ([8]; 500 ppm): 12 mm
inhibition halo diameter ([8]; 1000 ppm): 12 mm
inhibition halo diameter ([9]; 100 ppm): 24 mm
inhibition halo diameter ([9]; 1000 ppm): 26 mm
inhibition halo diameter [9, 22]: 18 mm
inhibition halo diameter ([10]; 100 ppm): 26 mm
inhibition halo diameter ([10]; 1000 ppm): 26 mm
Visible occurrence of mold at (mold): 6 days
inhibition halo diameter ([11]; 100 ppm): 0 mm
inhibition halo diameter ([11]; 1000 ppm): 0 mm
inhibition halo diameter ([12]; 62.5 ppm): 0 mm
inhibition halo diameter ([12]; 250 ppm): 0 mm
inhibition halo diameter [12, 21]: 0 mm
inhibition halo diameter ([12]; 500 ppm): 0 mm
inhibition halo diameter ([12]; 1000 ppm): 0 mm
inhibition halo diameter ([13]; 62.5 ppm): 0 mm
inhibition halo diameter ([13]; 250 ppm): 0 mm
inhibition halo diameter [13, 21]: 0 mm
inhibition halo diameter ([13]; 500 ppm): 0 mm
inhibition halo diameter ([13]; 1000 ppm): 0 mm
inhibition halo diameter ([14]; 62.5 ppm): 0 mm
inhibition halo diameter ([14]; 250 ppm): 0 mm
inhibition halo diameter [14, 21]: 0 mm
inhibition halo diameter ([14]; 500 ppm): 0 mm
inhibition halo diameter ([14]; 1000 ppm): 0 mm
inhibition halo diameter ([15]; 62.5 ppm): 0 mm
inhibition halo diameter ([15]; 250 ppm): 0 mm
inhibition halo diameter [15, 21]: 0 mm
inhibition halo diameter ([15]; 500 ppm): 0 mm
inhibition halo diameter ([15]; 1000 ppm): 0 mm
inhibition halo diameter ([16]; 100 ppm): 0 mm
inhibition halo diameter ([16]; 1000 ppm): 0 mm
inhibition halo diameter ([17]; 62.5 ppm): 0 mm
inhibition halo diameter ([17]; 250 ppm): 0 mm
inhibition halo diameter [17, 21]: 0 mm
inhibition halo diameter ([17]; 500 ppm): 0 mm
inhibition halo diameter ([17]; 1000 ppm): 0 mm
inhibition halo diameter ([18]; 62.5 ppm): 0 mm
inhibition halo diameter ([18]; 250 ppm): 0 mm
inhibition halo diameter [18, 21]: 0 mm
inhibition halo diameter ([18]; 500 ppm): 0 mm
inhibition halo diameter ([18]; 1000 ppm): 0 mm
inhibition halo diameter ([19]; 62.5 ppm): 0 mm
inhibition halo diameter ([19]; 250 ppm): 0 mm
inhibition halo diameter [19, 21]: 0 mm
inhibition halo diameter ([19]; 500 ppm): 0 mm
inhibition halo diameter ([19]; 1000 ppm): 0 mm
Visible occurrence of mold at [20]: 10 to 15 days and 10 to 16 days
